ChEMBL document CHEMBL4823252 (J Med Chem, 2021)

How the values were obtained:
MV4-11 [1] = test: Antiproliferative activity against human MV4-11 cells incubated for 72 hrs by Cell Counting Kit-8 assay; assay type: functional, cell-based; settings: MV4-11, 72 h
MOLM-13 [2] = test: Antiproliferative activity against human sunitinib-resistant MOLM-13 cells at 1000 nM incubated for 72 hrs by CCK8 assay relative to control; assay type: functional
MOLM-13 [3] = test: Antiproliferative activity against human sunitinib-resistant MOLM-13 cells at 37 nM incubated for 72 hrs by CCK8 assay relative to control; assay type: functional
MOLM-13 [4] = test: Antiproliferative activity against human sunitinib-resistant MOLM-13 cells at 1 nM incubated for 72 hrs by CCK8 assay relative to control; assay type: functional
MOLM-13 [5] = test: Antiproliferative activity against human quizartinib-resistant MOLM-13 cells at 111 nM incubated for 72 hrs by CCK8 assay relative to control; assay type: functional
MOLM-13 [6] = test: Antiproliferative activity against human quizartinib-resistant MOLM-13 cells at 37 nM incubated for 72 hrs by CCK8 assay relative to control; assay type: functional
MOLM-13 [7] = test: Antiproliferative activity against human quizartinib-resistant MOLM-13 cells at 4 nM incubated for 72 hrs by CCK8 assay relative to control; assay type: functional
MOLM-13 [8] = test: Antiproliferative activity against human quizartinib-resistant MOLM-13 cells at 1 nM incubated for 72 hrs by CCK8 assay relative to control; assay type: functional
MV4-11 [9] = test: Induction of cell cycle arrest in human MV4-11 cells assessed as accumulation at G1 phase at 1 nM incubated for 24 hrs by flow cytometry (reference value: 64.73%); assay type: functional
MV4-11 [10] = test: Induction of cell cycle arrest in human MV4-11 cells assessed as accumulation at S phase at 1 nM incubated for 24 hrs by flow cytometry (reference value: 16.31%); assay type: functional
MV4-11 [11] = test: Induction of cell cycle arrest in human MV4-11 cells assessed as accumulation at G2/M phase at 1 nM incubated for 24 hrs by flow cytometry (reference value: 7.29%); assay type: functional
MV4-11 [12] = test: Induction of cell cycle arrest in human MV4-11 cells assessed as accumulation at G1 phase at 10 nM incubated for 24 hrs by flow cytometry (reference value: 64.73%); assay type: functional
MV4-11 [13] = test: Induction of cell cycle arrest in human MV4-11 cells assessed as accumulation at G2/M phase at 10 nM incubated for 24 hrs by flow cytometry (reference value: 7.29%); assay type: functional
MV4-11 [14] = test: Induction of cell cycle arrest in human MV4-11 cells assessed as accumulation at G1 phase at 100 nM incubated for 24 hrs by flow cytometry (reference value: 64.73%); assay type: functional
MV4-11 [15] = test: Induction of cell cycle arrest in human MV4-11 cells assessed as accumulation at G2/M phase at 100 nM incubated for 24 hrs by flow cytometry (reference value: 7.29%); assay type: functional
MOLM-13 [16] = test: Induction of cell cycle arrest in human MOLM-13 cells assessed as accumulation at sub-G1 phase at 1 nM incubated for 24 hrs by flow cytometry (reference value: 4.24%); assay type: functional
MOLM-13 [17] = test: Induction of cell cycle arrest in human MOLM-13 cells assessed as accumulation at G1 phase at 1 nM incubated for 24 hrs by flow cytometry (reference value: 69.08%); assay type: functional
MOLM-13 [18] = test: Induction of cell cycle arrest in human MOLM-13 cells assessed as accumulation at S phase at 1 nM incubated for 24 hrs by flow cytometry (reference value: 16.28%); assay type: functional
MOLM-13 [19] = test: Induction of cell cycle arrest in human MOLM-13 cells assessed as accumulation at sub-G1 phase at 10 nM incubated for 24 hrs by flow cytometry (reference value: 4.24%); assay type: functional
MOLM-13 [20] = test: Induction of cell cycle arrest in human MOLM-13 cells assessed as accumulation at G1 phase at 10 nM incubated for 24 hrs by flow cytometry (reference value: 69.08%); assay type: functional
MOLM-13 [21] = test: Induction of cell cycle arrest in human MOLM-13 cells assessed as accumulation at S phase at 10 nM incubated for 24 hrs by flow cytometry (reference value: 16.28%); assay type: functional
MOLM-13 [22] = test: Induction of cell cycle arrest in human MOLM-13 cells assessed as accumulation at sub-G1 phase at 100 nM incubated for 24 hrs by flow cytometry (reference value: 4.24%); assay type: functional
MOLM-13 [23] = test: Induction of cell cycle arrest in human MOLM-13 cells assessed as accumulation at G1 phase at 100 nM incubated for 24 hrs by flow cytometry (reference value: 69.08%); assay type: functional
MV4-11 [24] = test: Induction of apoptosis in human MV4-11 cells assessed as late apoptotic cells at 1 nM incubated for 24 hrs by flow cytometry (reference value: 0.58%); assay type: functional
MV4-11 [25] = test: Induction of apoptosis in human MV4-11 cells assessed as viable cells at 10 nM incubated for 24 hrs by flow cytometry (reference value: 98.86%); assay type: functional; settings: read-out: Activity
MV4-11 [26] = test: Induction of apoptosis in human MV4-11 cells assessed as early apoptotic cells at 10 nM incubated for 24 hrs by flow cytometry (reference value: 0.31%); assay type: functional
MV4-11 [27] = test: Induction of apoptosis in human MV4-11 cells assessed as late apoptotic cells at 10 nM incubated for 24 hrs by flow cytometry (reference value: 0.58%); assay type: functional
MV4-11 [28] = test: Induction of apoptosis in human MV4-11 cells assessed as necrotic cells at 10 nM incubated for 24 hrs by flow cytometry (reference value: 0.25%); assay type: functional
MV4-11 [29] = test: Induction of apoptosis in human MV4-11 cells assessed as viable cells at 100 nM incubated for 24 hrs by flow cytometry (reference value: 98.86%); assay type: functional; settings: read-out: Activity
MV4-11 [30] = test: Induction of apoptosis in human MV4-11 cells assessed as early apoptotic cells at 100 nM incubated for 24 hrs by flow cytometry (reference value: 0.31%); assay type: functional
MOLM-13 [31] = test: Induction of apoptosis in human MOLM-13 cells assessed as late apoptotic cells at 1 nM incubated for 24 hrs by flow cytometry (reference value: 4.54%); assay type: functional
MOLM-13 [32] = test: Induction of apoptosis in human MOLM-13 cells assessed as necrotic apoptotic cells at 1 nM incubated for 24 hrs by flow cytometry (reference value: 0.45%); assay type: functional
MOLM-13 [33] = test: Induction of apoptosis in human MOLM-13 cells assessed as early apoptotic cells at 10 nM incubated for 24 hrs by flow cytometry (reference value: 2.18%); assay type: functional
MOLM-13 [34] = test: Induction of apoptosis in human MOLM-13 cells assessed as late apoptotic cells at 10 nM incubated for 24 hrs by flow cytometry (reference value: 4.54%); assay type: functional
MOLM-13 [35] = test: Induction of apoptosis in human MOLM-13 cells assessed as necrotic cells at 10 nM incubated for 24 hrs by flow cytometry (reference value: 0.45%); assay type: functional
MOLM-13 [36] = test: Induction of apoptosis in human MOLM-13 cells assessed as viable cells at 100 nM incubated for 24 hrs by flow cytometry (reference value: 92.83%); assay type: functional; settings: read-out: Activity
MOLM-13 [37] = test: Induction of apoptosis in human MOLM-13 cells assessed as early apoptotic cells at 100 nM incubated for 24 hrs by flow cytometry (reference value: 2.18%); assay type: functional
MOLM-13 [38] = test: Induction of apoptosis in human MOLM-13 cells assessed as late apoptotic cells at 100 nM incubated for 24 hrs by flow cytometry (reference value: 4.54%); assay type: functional
MOLM-13 [39] = test: Antiproliferative activity against human sunitinib-resistant MOLM-13 cells at 333 nM incubated for 72 hrs by CCK8 assay relative to control; assay type: functional

## CCN(CC)CCNC(=O)c1c(C)[nH]c(/C=C2\C(=O)Nc3ccc(F)cc32)c1C [SUNITINIB]
MV4-11 [1]
  IC50: 31.5 nM
MOLM-13 [2]
  Activity: 25.9%
MOLM-13 [3]
  Activity: 2.6%
MOLM-13 [4]
  Activity: 5.3%
MOLM-13 [5]
  Activity: 0.5%
MOLM-13 [6]
  Activity: -0.5%
MOLM-13 [7]
  Activity: -0.6%
MOLM-13 [8]
  Activity: 0.5%
MV4-11 [9]
  Activity: 66.78%
MV4-11 [10]
  Activity: 13.27%
MV4-11 [11]
  Activity: 5.86%
MV4-11 [12]
  Activity: 68.1%
MV4-11 [13]
  Activity: 2.53%
MV4-11 [14]
  Activity: 60.29%
MV4-11 [15]
  Activity: 2.68%
MOLM-13 [16]
  Activity: 6.13%
MOLM-13 [17]
  Activity: 65.44%
MOLM-13 [18]
  Activity: 16.42%
MOLM-13 [19]
  Activity: 24.17%
MOLM-13 [20]
  Activity: 63.75%
MOLM-13 [21]
  Activity: 5.58%
MOLM-13 [22]
  Activity: 49.02%
MOLM-13 [23]
  Activity: 41.02%
MV4-11 [24]
  Activity: 1.03%
MV4-11 [25]
  viability at 0.01 µM: 89.4%
MV4-11 [26]
  Activity: 2.79%
MV4-11 [27]
  Activity: 6.58%
MV4-11 [28]
  Activity: 1.22%
MV4-11 [29]
  viability at 0.1 µM: 80.1%
MV4-11 [30]
  Activity: 9.64%
MOLM-13 [31]
  Activity: 3.32%
MOLM-13 [32]
  Activity: 0.24%
MOLM-13 [33]
  Activity: 19.36%
MOLM-13 [34]
  Activity: 9.47%
MOLM-13 [35]
  Activity: 0.4%
MOLM-13 [36]
  viability at 0.1 µM: 44.3%
MOLM-13 [37]
  Activity: 31.1%
MOLM-13 [38]
  Activity: 23.49%
MOLM-13 [39]
  Activity: 6.3%

## Cc1c(NC(=O)CCN2CCCC2)c[nH]c1/C=C1\C(=O)Nc2ccc(F)cc21
MV4-11 [1]
  IC50: 23.5 nM
MOLM-13 [2]
  Activity: 67.8%
MOLM-13 [3]
  Activity: 4.7%
MOLM-13 [4]
  Activity: -4.2%
MOLM-13 [5]
  Activity: 2.9%
MOLM-13 [6]
  Activity: 3.8%
MOLM-13 [7]
  Activity: 3.3%
MOLM-13 [8]
  Activity: 1.5%
MV4-11 [9]
  Activity: 69.79%
MV4-11 [10]
  Activity: 11.6%
MV4-11 [11]
  Activity: 3.98%
MV4-11 [12]
  Activity: 66.28%
MV4-11 [13]
  Activity: 2%
MV4-11 [14]
  Activity: 62.23%
MV4-11 [15]
  Activity: 2.51%
MOLM-13 [16]
  Activity: 6.76%
MOLM-13 [17]
  Activity: 68.95%
MOLM-13 [18]
  Activity: 15.09%
MOLM-13 [19]
  Activity: 30.16%
MOLM-13 [20]
  Activity: 59.1%
MOLM-13 [21]
  Activity: 4.63%
MOLM-13 [22]
  Activity: 42.35%
MOLM-13 [23]
  Activity: 47.75%
MV4-11 [24]
  Activity: 0.99%
MV4-11 [25]
  viability at 0.01 µM: 88%
MV4-11 [26]
  Activity: 3.5%
MV4-11 [27]
  Activity: 6.55%
MV4-11 [28]
  Activity: 1.93%
MV4-11 [29]
  viability at 0.1 µM: 71.7%
MV4-11 [30]
  Activity: 17.98%
MOLM-13 [31]
  Activity: 4.3%
MOLM-13 [32]
  Activity: 0.22%
MOLM-13 [33]
  Activity: 22.66%
MOLM-13 [34]
  Activity: 14.5%
MOLM-13 [35]
  Activity: 0.52%
MOLM-13 [36]
  viability at 0.1 µM: 43.8%
MOLM-13 [37]
  Activity: 34.68%
MOLM-13 [38]
  Activity: 20.79%
MOLM-13 [39]
  Activity: 18.6%
